# In patent US20260022118A1, “HETEROCYCLIC COMPOUNDS AS NRAS INHIBITORS” (Board of Regents, The University of Texas System, priority 2023, published 2026):
# How the values were obtained:
# [1] = test system: THP-1 cells expressing G12D (NRAS G12D); assay: Inhibition of NRAS G12D-mediated phosphorylation of ERK (AlphaLISA p-ERK1/2) in THP-1 cells; format: cell-based; settings: Homo sapiens, THP-1, 2 h, 2 hours incubation, HBSS with 0% or 10% FBS, p-ERK1/2 (Thr202/Tyr204) AlphaLISA, read-out: pERK THP-1 IC50
# Procedure, shortened: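 THP-1 cells expressing NRAS G12D, seeded in HBSS with 0% or 10% FBS, were exposed to test compound (1% DMSO final) for 2 h. p-ERK1/2 (Thr202/Tyr204) read by AlphaLISA SureFire Ultra. IC50 from curves normalized to no-inhibitor (100%) and 1 μM trametinib (0%) controls.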
# NRAS G12D C118S = NRAS G12D C118S (Homo sapiens (Human), UniProt P01111, C118S/G12D); assay: NRas G12D Surface Plasmon Resonance (SPR) binding assay; settings: Avi-tagged biotinylated NRAS G12D C118S on streptavidin chip, 25° C., 1:1 kinetic or steady-state fit
# Procedure, shortened: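 Biotinylated Avi-tagged NRAS G12D C118S was captured at about 600 RU on a streptavidin chip alongside a blank reference channel. Compounds were run as 10-point 1:3 dilution series in HBS-P+ pH 7.4 with 5 mM MgCl2 and 3% DMSO, using a 2–4% DMSO solvent correction. A control compound at 10 μM was injected periodically to check protein activity.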
# Chain of NRAS G12D C118S (P01111 whole entry G12D/C118S): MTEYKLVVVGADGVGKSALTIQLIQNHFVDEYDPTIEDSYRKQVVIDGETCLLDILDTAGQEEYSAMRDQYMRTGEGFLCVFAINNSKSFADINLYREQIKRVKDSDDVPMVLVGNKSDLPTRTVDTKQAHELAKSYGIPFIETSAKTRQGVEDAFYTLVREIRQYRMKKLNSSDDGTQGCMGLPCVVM
IC50 [1] [nM],Kd (NRAS G12D C118S) [nM],SMILES
169,33.3,"C#Cc1c(F)ccc2cc(O)cc(-c3nc(OC4CC4)c4c([C@H]5[C@@H]6CNC[C@@H]65)nn(C5CC5)c4c3F)c12 [Example 70, 4-(3-((1R,5S,6r)-3-azabicyclo[3.1.0]hexan-6-yl)-4-cyclopropoxy-1-cyclopropyl-7-fluoro-1H-pyrazolo[4,3-c]pyridin-6-yl)-5-ethynyl-6-fluoronaphthalen-2-ol]"
24.4,0.594,"C#Cc1c(F)ccc2cc(O)cc(-c3nc(CC)c4c([C@H]5[C@@H]6CNC[C@@H]65)nn(C5CC5)c4c3F)c12 [Example 72, 4-(3-((1R,5S,6r)-3-azabicyclo[3.1.0]hexan-6-yl)-1-cyclopropyl-4-ethyl-7-fluoro-1H-pyrazolo[4,3-c]pyridin-6-yl)-5-ethynyl-6-fluoronaphthalen-2-ol]"
1300,212,"C#Cc1c(F)ccc2cc(O)cc(-c3nc(CC(C)C)c4c([C@H]5[C@@H]6CNC[C@@H]65)nn(C5CC5)c4c3F)c12 [Example 73, 4-(3-((1R,5S,6r)-3-azabicyclo[3.1.0]hexan-6-yl)-1-cyclopropyl-7-fluoro-4-isobutyl-1H-pyrazolo[4,3-c]pyridin-6-yl)-5-ethynyl-6-fluoronaphthalen-2-ol]"
9.56,0.141,"C#Cc1c(F)ccc2cc(O)cc(-c3nc(C(C)C)c4c([C@H]5[C@@H]6CNC[C@@H]65)nn(C5CC5)c4c3F)c12 [Example 74, 4-(3-((1R,5S,6r)-3-azabicyclo[3.1.0]hexan-6-yl)-1-cyclopropyl-7-fluoro-4-isopropyl-1H-pyrazolo[4,3-c]pyridin-6-yl)-5-ethynyl-6-fluoronaphthalen-2-ol]"
248,25,"C#Cc1c(F)ccc2cc(O)cc(-c3nc(N(C)C(C)C)c4c([C@H]5[C@@H]6CNC[C@@H]65)nn(C5CC5)c4c3F)c12 [Example 75, 4-(3-((1R,5S,6r)-3-azabicyclo[3.1.0]hexan-6-yl)-1-cyclopropyl-7-fluoro-4-(isopropyl(methyl)amino)-1H-pyrazolo[4,3-c]pyridin-6-yl)-5-ethynyl-6-fluoronaphthalen-2-ol]"
547,28.3,"C#Cc1c(F)ccc2cc(O)cc(-c3nc(NC)c4c([C@H]5[C@@H]6CNC[C@@H]65)nn(C5CC5)c4c3F)c12 [Example 76, 4-(3-((1R,5S,6r)-3-azabicyclo[3.1.0]hexan-6-yl)-1-cyclopropyl-7-fluoro-4-(methylamino)-1H-pyrazolo[4,3-c]pyridin-6-yl)-5-ethynyl-6-fluoronaphthalen-2-ol]"
258,17.9,"C#Cc1c(F)ccc2cc(O)cc(-c3nc(NC(C)C)c4c([C@H]5[C@@H]6CNC[C@@H]65)nn(C5CC5)c4c3F)c12 [Example 77, 4-(3-((1R,5S,6r)-3-azabicyclo[3.1.0]hexan-6-yl)-1-cyclopropyl-7-fluoro-4-(isopropylamino)-1H-pyrazolo[4,3-c]pyridin-6-yl)-5-ethynyl-6-fluoronaphthalen-2-ol]"
205,49.5,"C#Cc1c(F)ccc2cc(O)cc(-c3nc(Nc4ccccc4)c4c([C@H]5[C@@H]6CNC[C@@H]65)nn(C5CC5)c4c3F)c12 [Example 83, 4-(3-((1R,5S,6r)-3-azabicyclo[3.1.0]hexan-6-yl)-1-cyclopropyl-7-fluoro-4-(phenylamino)-1H-pyrazolo[4,3-c]pyridin-6-yl)-5-ethynyl-6-fluoronaphthalen-2-ol]"
767,151,"C#Cc1c(F)ccc2cc(O)cc(-c3ncc4c(N5C[C@@H]6CC[C@H]5CN6)cn(C5CC5)c4c3F)c12 [Example 86, 4-(3-((1S,4S)-2,5-diazabicyclo[2.2.2]octan-2-yl)-1-cyclopropyl-7-fluoro-1H-pyrrolo[3,2-c]pyridin-6-yl)-5-ethynyl-6-fluoronaphthalen-2-ol]"
227,4.58,"C#Cc1c(F)ccc2cc(N)cc(-c3nc(CC)c4c([C@H]5[C@@H]6CNC[C@@H]65)nn(C5CC5)c4c3F)c12 [Example 88, 4-(3-((1R,5S,6r)-3-azabicyclo[3.1.0]hexan-6-yl)-1-cyclopropyl-4-ethyl-7-fluoro-1H-pyrazolo[4,3-c]pyridin-6-yl)-5-ethynyl-6-fluoronaphthalen-2-amine]"
888,107,"C#Cc1c(F)ccc2cc(O)cc(-c3nc(CC)c4c(N5C[C@@H]6CC[C@H]5CN6)nn(C5CC5)c4c3F)c12 [Example 90, 4-(3-((1S,4S)-2,5-diazabicyclo[2.2.2]octan-2-yl)-1-cyclopropyl-4-ethyl-7-fluoro-1H-pyrazolo[4,3-c]pyridin-6-yl)-5-ethynyl-6-fluoronaphthalen-2-ol]"
1650,146,"C#Cc1c(F)ccc2cc(O)cc(-c3nc(OC)c4c(N5C[C@@H]6CC[C@H]5CN6)nn(C5CC5)c4c3F)c12 [Example 91, 4-(3-((1S,4S)-2,5-diazabicyclo[2.2.2]octan-2-yl)-1-cyclopropyl-7-fluoro-4-methoxy-1H-pyrazolo[4,3-c]pyridin-6-yl)-5-ethynyl-6-fluoronaphthalen-2-ol]"
360,904,"C#Cc1c(F)ccc2cc(O)cc(-c3ncc4c([C@H]5[C@@H]6CNC(C(=O)OC)[C@@H]65)nn(C)c4c3F)c12 (stereo partly drawn) [Example 96, methyl (1S,5R,6S)-6-(6-(8-ethynyl-7-fluoro-3-hydroxynaphthalen-1-yl)-7-fluoro-1-methyl-1H-pyrazolo[4,3-c]pyridin-3-yl)-3-azabicyclo[3.1.0]hexane-2-carboxylate]"
2220,190,"C#Cc1c(F)ccc2cc(O)cc(-c3ncc4c([C@H]5[C@@H]6CNC(CO)[C@@H]65)nn(C)c4c3F)c12 (stereo partly drawn) [Example 97, 5-ethynyl-6-fluoro-4-(7-fluoro-3-((1S,5R,6S)-2-(hydroxymethyl)-3-azabicyclo[3.1.0]hexan-6-yl)-1-methyl-1H-pyrazolo[4,3-c]pyridin-6-yl)naphthalen-2-ol]"
> 10000,7600,"C#Cc1c(F)ccc2cc(O)cc(-c3ncc4c([C@H]5[C@@H]6CNC[C@@H]65)nn(CCCN(C)C)c4c3F)c12 [Example 102, 4-(3-((1R,5S,6r)-3-azabicyclo[3.1.0]hexan-6-yl)-1-(3-(dimethylamino)propyl)-7-fluoro-1H-pyrazolo[4,3-c]pyridin-6-yl)-5-ethynyl-6-fluoronaphthalen-2-ol]"

SMILES,IC50 [1] [nM],Kd (NRAS G12D C118S) [nM]
"C#Cc1c(F)ccc2cc(O)cc(-c3ncc4c(N5CC6CCC(C5)N6)cn(C5CC5)c4c3F)c12 [Example 85, 4-(3-(3,8-diazabicyclo[3.2.1]octan-3-yl)-1-cyclopropyl-7-fluoro-1H-pyrrolo[3,2-c]pyridin-6-yl)-5-ethynyl-6-fluoronaphthalen-2-ol]",1710,336
"C#Cc1c(F)ccc2cc(O)cc(-c3nc(OCC(C)C)c4c([C@H]5[C@@H]6CNC[C@@H]65)nn(C5CC5)c4c3F)c12 [Example 100, 4-(3-((1R,5S,6r)-3-azabicyclo[3.1.0]hexan-6-yl)-1-cyclopropyl-7-fluoro-4-isobutoxy-1H-pyrazolo[4,3-c]pyridin-6-yl)-5-ethynyl-6-fluoronaphthalen-2-ol]",1760,704
